Entries after “also recorded” stand apart in the source; their conditions may differ.
Assay: Safety measurements for ^18F-TFB administration (vital signs, clinical laboratory tests)
Assay type: in vivo, human
Procedure: Vital signs (heart rate, systolic and diastolic blood pressures, respiratory rate, and temperature) were measured prior to ^18F-TFB administration and at 45 and 240 min post-injection. Venous blood samples were taken prior to ^18F-TFB administration and at ˜240 min post-injection for a panel of clinical laboratory tests to evaluate the safety of the radiotracer administration.

SMILES: F[B-](F)(F)[18F] [^18F-TFB, ^18F-tetrafluoroborate]
- clinical laboratory test values after administration (blood chemistries, electrolytes, liver and kidney functional tests, relative to baseline): No significant changes; also recorded: no significant findings
- adverse effects (eight healthy participants): no adverse effects
- tolerability of administration (healthy participants, 333-407 MBq intravenous): well-tolerated; also recorded: well tolerated
- vital signs after administration (heart rate, blood pressures, respiratory rate, before vs after administration): No significant changes; also recorded: no significant findings

Reference: patent publication US11532406B2, “High specific activity preparation of F-18 tetrafluoroborate” (Mayo Foundation for Medical Education and Research, priority 2016, dated 2022)
